The structures appear in SMILES notation.

One series concerns Phytophthora infestans. Type of series: in vivo. The note with it: tomato, protective, application rate 50 g/ha, evaluation 3 days after inoculation; 0% = control, 100% = no infection.

By logP is commonly meant a log measure of how a compound divides between an organic and an aqueous phase. `CCc1[nH]c(=O)oc1C#N` [5-cycano-4-ethyl-3H-[1,3]-oxazol-2-one] returned a logP in “log p” of 0.88.

Broadly, the melting point is the temperature of the solid-liquid transition. Consider `CCc1c(C#N)oc(=O)n1S(=O)(=O)c1c(C)noc1C` [Example 1, 5-cyano4-ethyl-3-(3,5-dimethyl-isoxazole-4-sulphonyl)-3H-[1,3]-oxazol-2-one], for which the melting point lay in the range of 117 to 122 °C. Moreover, the logP in “log p” is 2.87. The Efficacy in % with Phytophthora infestans was found to be 94%.

The values are drawn from patent US6359142B1 (priority 1998, dated 2002).
